Test results taken from patent US8163953B2, “Compounds for lysosomal modulation and methods of use” (University of Connecticut, priority 2008, dated 2012).
Entries after “also recorded” stand apart in the source; their conditions may differ. Read-outs that look alike come from different tables or passages of the source. Values belong to the compound of their own block, whether it stands above or below them. Peptide text beside a SMILES is read from it. * marks the point of attachment. Cbz = O=C(OCc1ccccc1)*; CHN2 = [N-]=[N+]=C*

What was measured:
cathepsin = experiment: Cathepsin enhancement and synaptic marker recovery in a protein accumulation model; assay type: cell-based
Excerpt: Increased lysosomal enzyme activities are an indicator of cellular responses aimed at compensating for accumulating material. Evidence of compensatory up-regulation of lysosomal enzymes in response to lysosome stress and protein accumulation has led to the identification of a pharmacological avenue for promoting such responses. This pharmacological avenue has been used to identify and synthesize the compounds described herein, which are effective as lysosomal modulators. The base structures of PADK and Z-Phe-Phe-diazomethylketone (PPDK) were used for the design of new lysosomal modulators because PADK and PPDK enhance cathepsin levels at 0.3-10 μM, resulting in 70-80% recovery of synaptic markers that were lost in a protein accumulation model. Other modulators, including diazoacetyl-DL-2-aminohexanoic acid methyl ester, require up to 30 μM to produce neuroprotective effects, but result in only 24-42% synaptic recovery.

cathepsin D = experiment: Cathepsin D up-regulation in hippocampal slice cultures (immunoblot); assay type: cell-based; conditions: for EC50: increase of cathepsin D levels, slices treated daily for 3-6 days; for potency of increasing cathepsin D levels (in words) / EC2-fold (concentration needed for a 2-fold increase in cathepsin levels): hippocampal slice cultures; for potency of increasing cathepsin D levels (in words): treated daily 3-6 days
Experimental: The cultured slices were treated daily with different modulator concentrations for 3-6 days. […] BW1001 was not tested further due to its low potency.
The hippocampal slices were maintained in culture for 10-12 days to stabilize, then were treated daily with different modulator concentrations for 3 days. Then they were harvested rapidly in ice-cold buffer and homogenized in the presence of protease inhibitors.
Equal protein aliquots of the slice samples were subjected to immunoblotting to label the proform and the active form of cathepsin D (CD). FIG. 3A is an immunoblot showing PADK induced increases in the proform and active form of cathepsin D in hippocampal slice cultures. FIG. 3B is a graph showing the dose-dependent up-regulation of cathepsin D in hippocampal slice cultures by PADK and by BW1002.
Slices were treated daily for 3 days with 10 μM compound, then harvested rapidly for immunoblot assessment of active CD levels (ANOVA: P<0.0001). FIG. 5 is a bar graph showing the results of these tests. The data in FIG. 5 indicate that the non-peptide lysosomal modulators provide potent lysosomal modulation that enhances clearance of pathogenic accumulations. All data represent means±SEM.

[1] = system: hippocampal slice cultures; experiment: LDH assay on media of treated slice cultures; conditions: for LDH release: media samples from treated slice cultures
Experimental: (§4) Potential toxicity was tested by assessing synaptic markers and subjecting media samples from the treated slice cultures to a standard LDH assay.

[2] = system: pre- and postsynaptic markers; experiment: Synaptic marker assessment in treated slice cultures
Experimental: as §4

[3] = system: pre- and postsynaptic markers
Experimental: as §4

[4] = system: hippocampal slice cultures
Experimental: as §4

[5] = system: PDGF-APPSwInd transgenic mice; experiment: Synaptic protection in PDGF-APPSwInd transgenic mice (GluR1); assay type: in vivo; conditions: daily i.p.; BW1005 45 mg/kg, BW1002 25 mg/kg
Experimental: Modulator BW1005, was administered daily i.p. into an Alzheimer's Disease model —PDGF-APPSwInd transgenic mice. The transgenic mice are hemizygotes for a mutant form of the human APP gene containing both the Swedish (K670N/M671L) and the Indiana (V717F) mutations (APPSwInd). […] Based on its potency in relation to PADK's effect in slices and mice, BW1005 was injected i.p. daily at a dose of 45 mg/kg.
The brains of the mice were dissected and assessed for the postsynaptic marker GluR1. […] FIG. 7 is a bar graph showing the mean GluR1 measure ±SEM for each group studied (post hoc test: p=0.05). […] Changes in cathepsin levels may explain the synaptic protection.

cathepsins B and D = conditions: in vivo; cited from earlier work
[6] = Adverse-effect assessment of PADK dosing in 10 month old mice; assay type: in vivo
Experimental: (§1) The modulator PADK up-regulates cathepsins without causing adverse effects. Hippocampal homogenates were assessed for the mice. FIGS. 6A-D are graphs showing the effects of PADK doping on various biological and physical attributes of 10 month old mice.
(§2) FIG. 6D is a graph showing the results of motor skills and spatial memory tests. Motor skills and coordination were assessed using a variable-speed rotating rod and measuring the time the animal could remain moving on the rod. Spatial memory was tested with a conditions place preference (CPP) North-South paradigm in which the animal must remember where a previous reward was presented. Thus, the lysosomal modulation occurred in the absence of any evident effects on liver/kidney integrity, blood urea levels, or on normal brain functionality.

[7] = system: human paired helical filaments (PHFs); experiment: Chloroquine-induced hippocampal slice model of protein accumulation, PHF immunostaining; assay type: cell-based; conditions: 6 days chloroquine, then 3 μM for 2 days
Excerpt: FIGS. 2A-C are immunostains of hippocampal slice cultures for human paired helical filaments (PHFs). The pathogenic PHF was undetectable in control tissue, FIG. 2A, whereas cellular accumulation of PHF was evident after 6 days of chloroquine treatment followed by 2 days of washout, FIG. 2B. […] Size bar: 16 μm.

[8] = system: APPSwInd and APPswe/PS1ΔE9 mice; experiment: Synaptic markers in APPSwInd and APPswe/PS1ΔE9 mice treated with PADK; assay type: in vivo; conditions: two Alzheimer's mouse models, immunoblot of homogenates
Experimental: To compare the BW1002/1005 results to previous PADK work, homogenate samples were analyzed by immunoblot for the presynaptic protein synapsin II and postsynaptic glutamatergic marker GluR1.

APPswe/PS1ΔE9 mice = experiment: Spontaneous alternation behavior in a T-maze, APPswe/PS1ΔE9 mice; assay type: in vivo
Experimental: (§3) The improvement of synaptic integrity by PADK was also associated with the reduction of behavioral deficits in the mouse models. FIG. 9C is a bar graph showing rotorod performance for several groups of mice. […] FIG. 9D is a bar graph illustrating spontaneous alternation behavior in the second type of Alzheimer's mouse model (APPswe/PS1ΔE9). APPswe/PS1ΔE9 mice treated with vehicle or PADK were tested on the hippocampal-dependent task of spontaneous alternation behavior in a T-maze. The mice were allowed to explore starting from the intersection of a T-maze, and were monitored for the order of entries into the three arms (arms A, B, and C). In control mice, every third explored arm is usually different than the previous two (e.g., A-B-C, B-A-C, etc.; the third decision being an alternation). Alzheimer's mice, on the other hand, frequently go back into one of the previous two arms explored (e.g., A-B-A, C-B-B), thus reducing the percent alternations. […] Open field mobility assessment confirmed no change in exploratory mobility across the different groups of mice.

cathepsin B = experiment: In vivo lysosomal modulation by PADK in mice
Experimental: The enhanced cathepsin staining was evident in many brain regions and co-localized with the lysosomal marker LAMP-1.
as §1, §2

APPSwInd mice = experiment: Rotarod performance of APPSwInd mice; assay type: in vivo; conditions: trials on the 8th and 9th injection days
Experimental: as §3

SMILES: CCCCC(NC(=O)C=[N+]=[N-])C(=O)OC (racemic) [diazoacetyl-DL-2-aminohexanoic acid methyl ester]
concentration required to produce neuroprotective effects (cathepsin): up to 30 μM

SMILES: O=C(NC(Cc1ccccc1)[C@H](O)CNCc1ccccc1)OCc1ccccc1 (stereo partly drawn) [BW1001, (2R,3S)-3-Cbz amino-2-hydroxy-4-phenyl-1-benzyl amino butane]
EC50 (cathepsin D): 20 µM

SMILES: CC(=O)N(Cc1cccc2ccccc12)C[C@@H](O)[C@H](Cc1ccccc1)NC(=O)OCc1ccccc1 [BW1004, (2R,3S)-3-Cbz amino-2-hydroxy-4-phenyl-1-(N-naphthylmethylethanamido) butane]
potency of increasing cathepsin D levels (in words) (cathepsin D): potencies at or near that of PADK
EC50 (cathepsin D): 20 µM
synaptic decline (pre- and postsynaptic markers) [3]: did not produce evident toxicity
LDH release [4]: did not produce evident toxicity

SMILES: O=C(NC(Cc1ccccc1)[C@H](O)CN(Cc1ccccc1)C(=O)c1ccccc1)OCc1ccccc1 (stereo partly drawn) [BW1005, (2R,3S)-3-Cbz amino-2-hydroxy-4-phenyl-1-(N-benzylbenzamide) butane]
potency of increasing cathepsin D levels (in words) (cathepsin D): potencies at or near that of PADK
EC50 (cathepsin D): 15 µM
LDH release [1]: did not cause synaptic decline or LDH release
synaptic decline (pre- and postsynaptic markers) [2]: did not cause synaptic decline or LDH release
synaptic protection: postsynaptic marker GluR1 in brain [5]: significant synaptic protection; also recorded: greater than that provided by PADK

SMILES: [N-]=[N+]=CC(=O)[C@H](Cc1ccccc1)NC(=O)[C@H](Cc1ccccc1)NC(=O)OCc1ccccc1 [PPDK, Z-Phe-Phe-diazomethylketone] (Cbz-Phe-Phe-CHN2)
EC2-fold (concentration needed for a 2-fold increase in cathepsin levels) (cathepsin D): ~5 µM
EC50 (cathepsin D; unit μm [sic]): 14 µM

Now from value to compound, other results behind:

EC50 (cathepsin D): 3 µM
SMILES: CC(=O)N(Cc1ccccc1)C[C@@H](O)C(Cc1ccccc1)NC(=O)OCc1ccccc1 (stereo partly drawn) [BW1002, (2R,3S)-3-Cbz amino-2-hydroxy-4-phenyl-1-(N-benzylacetamido) butane]
LDH release [1]: did not cause synaptic decline or LDH release
synaptic decline (pre- and postsynaptic markers) [2]: did not cause synaptic decline or LDH release

EC50 (cathepsin D): 2 µM
LDH release as % of maximal LDH release produced by total cellular disruption (1% TX-100) ([1]; after 6 days of treatment): < 2%
LDH release [1]: time-dependent increase in LDH activity
synaptic decline (pre- and postsynaptic markers) [2]: caused evident synaptic decline
SMILES: [N-]=[N+]=CC(=O)N(Cc1ccccc1)C[C@@H](O)[C@H](Cc1ccccc1)NC(=O)OCc1ccccc1 [BW1003, (2R,3S)-3-Cbz amino-2-hydroxy-4-phenyl-1-(N-benzyl-2-diazo-ethanamido) butane]

EC50 (cathepsin D; unit μm [sic]): 10 µM
SMILES: C[C@H](NC(=O)[C@H](Cc1ccccc1)NC(=O)OCc1ccccc1)C(=O)C=[N+]=[N-] [PADK, Z-Phe-Ala-diazomethylketone]
rat brain levels of cathepsins B and D (cathepsins B and D): significant increases
EC2-fold (concentration needed for a 2-fold increase in cathepsin levels) (cathepsin D): 3.2 µM
proform and active form of cathepsin D (cathepsin D; slices treated daily for 3 days, immunoblot): increased
ALT (damage to liver function) [6]: no change in either ALT or BUN
BUN (kidney compromise) [6]: no change in either ALT or BUN
adverse effects on synaptic markers GluR1 and synaptophysin [6]: No adverse effects were evident
motor skills and coordination (variable-speed rotating rod) [6]: did not impair motor skills, coordination, or spatial memory
spatial memory (CPP North-South paradigm) [6]: did not impair motor skills, coordination, or spatial memory
clearance of chloroquine-induced PHF deposits in CA1 neurons [7]: clearance of most neuronal deposits of PHF material
GluR1 deficit [8]: significantly reduced the GluR1 deficit
spontaneous alternations (APPswe/PS1ΔE9 mice): significantly improved alternations
LDH release [1]: did not cause synaptic decline or LDH release
synaptic decline (pre- and postsynaptic markers) [2]: did not cause synaptic decline or LDH release
immunostaining for the active form of cathepsin B in hippocampal cells (cathepsin B; 10-12-month old mice, 9 daily i.p. injections): dramatic increase in immunostaining
cathepsin levels in hippocampal homogenates (cathepsin B; 10 month old mice, across different dosages): dose-dependent increases in cathepsin levels
Rotarod performance across trials (APPSwInd mice): enabled the APPSwInd mice to improve across Rotarod trials
